These are literature values, as cited in US20230383363A1, “METHOD FOR DETERMINING SENSITIVITY TO PARP INHIBITOR OR DNA DAMAGING AGENT USING NON-FUNCTIONAL TRANSCRIPTOME” (GC GENOME CORPORATION, priority 2020, published 2023).

For this data set the following is noted: patients selected by FoundationFocusCDxBRCA (BRCA1 and BRCA2 mutations).

For `CNCc1ccc(-c2[nH]c3cc(F)cc4c3c2CCNC4=O)cc1` [rucaparib], the “overall response rate (ORR)” value was 53.8%.
